The values that follow come from patent US4644063A, “1,3-oxazolidine-2-one derivatives” (Nippon Chemiphar Co., Ltd., priority 1984, dated 1987).

Counter-ions that a name gives are not always drawn.

For data set [1], the system named is Glutamic Acid at Neuromuscular Junctions of Crayfish (opener muscles of the first walking legs). Nature of the data set: Blocking effects against Glutamic Acid at Neuromuscular Junctions of Crayfish. As to conditions: 5-minute pretreatment, L-glutamic acid 10^-4 M.
Data set [2] can be described thus: Acute Toxicity (up-and-down method). As to conditions: mouse, in vivo, iv (caudal vein), ddN male mice. Here is the method:
Using ddN male mice, the acute toxicity level of each test compound was determined in accordance with an up-and-down method. Some of the test compounds used were dissolved in physiological saline and administered through the caudal vein.

Data set [3] relates to Anemic Decerebrate Rigidity Sample (EMG, M. triceps brachii). Nature of the data set: Effects on Anemic Decerebrate Rigidity Sample (suppression of EMG of forelimb muscle). It is filed as in vivo, Wistar male rats. As to conditions: iv, 10 min; rat, 3 mg/kg in physiological saline through femoral vein, 10 minutes after administration; read-out: Suppression rate.
In data set [4] the test system is glutamic acid. As to conditions: in higher animals; cited from earlier work.
Data set [5] has as its system higher animals. The settings on record: Oleny et al; cited from earlier work.
Data set [6] deals with neuraxial muscle relaxing effect. Put plainly: Neuraxial muscle relaxing effect, experiment conducted by the inventors. It counts as in vivo.
For data set [7] the following is noted: reported by Nikolova; cited from earlier work.
[8] abbreviates: test compound 2 × 10^-4 M, 200 µM.
The mark [9] stands for this setting: test compound 2 × 10^-5 M, 20 µM.

The LD50 is the dose at which mortality reaches 50%. Lower therefore signals greater toxicity. In the case of `CC(C)C[C@H]1[C@H](c2ccccc2)OC(=O)N1CCCN1CCCCC1` [Compound 7, (4S,5S)-4-(2-methylpropyl)-5-phenyl-3-(3-piperidinopropyl)-1,3-oxazolidine-2-one], the “Blocking rate against glutamic acid” value in data set [1] (setting [8]) amounted to 92%. Moreover, the LD50 in data set [2] amounted to 30.4 mg/kg. Also, the inhibition in vivo at 3 mg/kg in data set [3] came out at 64.8%.

On to `C=C(C)[C@H]1CN[C@H](C(=O)O)[C@H]1CC(=O)O` [kainic acid], for which the “agonist for glutamic acid” value in data set [4] was “extremely strong agonist”. Moreover, in data set [5], the “effects induced from administration” value is “dystropy, rigidity, tremor, convulsion and the like are induced”.

As for `C/C(=C/C=C/[C@@H](C)C(=O)O)[C@H]1CN[C@H](C(=O)O)[C@H]1CC(=O)O` [domoic acid], in data set [4], the “agonist for glutamic acid” value is “extremely strong agonist”. Further, the “effects induced from administration” value in data set [5] is “dystropy, rigidity, tremor, convulsion and the like are induced”.

The compound `CC(C)[C@@H]1[C@@H](c2ccccc2)OC(=O)N1CCCN1CCCC1` (racemic) [Compound 10, (4RS, 5RS)-4-(1-methylethyl)-5-phenyl-3-(3-pyrrolidinopropyl)-1,3-oxazolidine-2-one] registered an LD50 in data set [2] of 54.6 mg/kg. In addition, the inhibition in vivo at 3 mg/kg in data set [3] was 18.7%.

Take `CC(C)C[C@@H]1[C@H](c2ccccc2)OC(=O)N1CCCN1CCCCC1` [Compound 6, (4R,5S)-4-(2-methylpropyl)-5-phenyl-3-(3-piperidinopropyl)-1,3-oxazolidine-2-one]: the inhibition in vivo at 3 mg/kg in data set [3] came out at 14.9%.

In the case of `CCCCCC[C@@H]1[C@@H](c2ccccc2)OC(=O)N1CCCN1CCCCC1` (racemic) [Compound 41, (4RS,5RS)-4-hexyl-5-phenyl-3-(3-piperidinopropyl)-1,3-oxazolidine-2-one], the “Blocking rate against glutamic acid” value in data set [1] (setting [9]) came out at 69%.

Turning to `CCCC[C@@H]1[C@@H](c2ccccc2)OC(=O)N1CCCN1CCCCC1` (racemic) [Compound 35, (4RS,5RS)-4-butyl-5-phenyl-3-(3-piperidinopropyl)-1,3-oxazolidine-2-one], in data set [1] (setting [9]), the “Blocking rate against glutamic acid” value worked out at 68%.

`CC(C)C[C@@H]1[C@H](c2ccc(F)cc2)OC(=O)N1CCCN1CCCCC1` (racemic) [Compound 29, (4RS,5SR)-5-(4-fluorophenyl)-4-(2-methylpropyl)-3-(3-piperidinopropyl)-1,3-oxazolidine-2-one] returned an LD50 in data set [2] of 66.1 mg/kg. In addition, in data set [3], the inhibition in vivo at 3 mg/kg is 9.9%.

In the case of `CC(C)C[C@H]1[C@@H](c2ccccc2)OC(=O)N1CCCN1CCCCC1` [Compound 5, (4S,5R)-4-(2-methylpropyl)-5-phenyl-3-(3-piperidinopropyl)-1,3-oxazolidine-2-one], the “Blocking rate against glutamic acid” value in data set [1] (setting [8]) was 91%. In data set [2], this compound displayed an LD50 of 69 mg/kg. Further, the inhibition in vivo at 3 mg/kg in data set [3] is 37.7%.

Turning to `C[C@@H]1[C@H](c2ccccc2)OC(=O)N1CCN1CCCCC1.Cl` (racemic) [Comparative compound 2, (4RS,5SR)-4-methyl-5-phenyl-3-(2-piperidinoethyl)-1,3-oxazolidine-2-one hydrochloride, reference compound], the “Blocking rate against glutamic acid” value in data set [1] (setting [8]) amounted to 0%. Besides, in data set [3], the inhibition in vivo at 3 mg/kg amounted to 3.6%.

`CC1C(c2ccccc2)OC(=O)N1CCN1CCCCC1` (stereo not shown) [4-methyl-5-phenyl-3-(2-piperidinoethyl)-1,3-oxazolidine-2-one]: in data set [6], the “neuraxial muscle relaxing effect” value is reported as “extremely weak”. In data set [7], the analgesic effect entry is on record as “has an analgesic effect”, the anti-convulsion effect result is recorded as “exerts no anti-convulsion” and the “neuraxial muscle relaxing effect” value is listed as “exerts no anti-convulsion nor neuraxial muscle relaxing effects”.

Regarding `N[C@@H](Cn1oc(=O)[nH]c1=O)C(=O)O` [quisqualic acid], the “agonist for glutamic acid” value in data set [4] is on record as “extremely strong agonist”. Besides, the “effects induced from administration” value in data set [5] is “dystropy, rigidity, tremor, convulsion and the like are induced”.

Turning to `CC(C)C[C@@H]1[C@@H](c2ccccc2)OC(=O)N1CCCN1CCCCC1` [Compound 8, (4R,5R)-4-(2-methylpropyl)-5-phenyl-3-(3-piperidinopropyl)-1,3-oxazolidine-2-one], the inhibition in vivo at 3 mg/kg in data set [3] was 12%.

Take `CC(C)C[C@@H]1[C@H](c2ccccc2)OC(=O)N1CCCN1CCCC1` (racemic) [Compound 13, (4RS,5SR)-4-(2-methylpropyl)-5-phenyl-3-(3-pyrrolidinopropyl)-1,3-oxazolidine-2-one]: the “Blocking rate against glutamic acid” value in data set [1] (setting [8]) is recorded as 80%. In data set [2], this compound registered an LD50 of 75.1 mg/kg.

Turning to `CC(C)[C@@H]1[C@@H](c2ccccc2)OC(=O)N1CCCN1CCCCC1` (racemic) [Compound 2, (4RS,5RS)-4-(1-methylethyl)-5-phenyl-3-(3-piperidinopropyl)-1,3-oxazolidine-2-one], the LD50 in data set [2] was 18.8 mg/kg. In data set [3], the inhibition in vivo at 3 mg/kg amounted to 19.8%.

In the case of `C[C@@H]1[C@@H](c2ccccc2)OC(=O)N1CCN1CCCCC1` (racemic) [Comparative compound 3, (4RS,5RS)-4-methyl-5-phenyl-3-(2-piperidinoethyl)-1,3-oxazolidine-2-one hydrochloride, reference compound], the inhibition in vivo at 3 mg/kg in data set [3] was 2.2%.

Consider `C[C@@H]1[C@H](c2ccccc2)OC(=O)N1CCN1CCCC1.Cl` (racemic) [Comparative compound 4, (4RS,5SR)-4-methyl-5-phenyl-3-(2-pyrrolidinoethyl)-1,3-oxazolidine-2-one hydrochloride, reference compound], for which the “Blocking rate against glutamic acid” value in data set [1] (setting [8]) stood at 45%. In addition, the inhibition in vivo at 3 mg/kg in data set [3] was 1%.

`CC(C)[C@@H]1[C@H](c2ccccc2)OC(=O)N1CCCN1CCCCC1` (racemic) [Compound 1, (4RS,5SR)-4-(1-methylethyl)-5-phenyl-3-(3-piperidinopropyl)-1,3-oxazolidine-2-one]: in data set [2], the LD50 turned out to be 29.7 mg/kg. The inhibition in vivo at 3 mg/kg in data set [3] was 12%.

On to `Cc1ccc(C(=O)C(C)CN2CCCCC2)cc1` (stereo not shown) [Comparative compound 1, toluperisone hydrochloride, reference compound], for which the inhibition in vivo at 3 mg/kg in data set [3] worked out at 4.8%.

Turning to `CC(C)C[C@H]1[C@@H](c2ccccc2)OC(=O)N1CCCN1CCCCCC1` [Compound 17, (4S,5R)-4-(2-methylpropyl)-3-[3-(perhydroazepine-1-yl-)propyl]-5-phenyl-1,3-oxazolidine-2-one], the “Blocking rate against glutamic acid” value in data set [1] (setting [8]) came to 90%. In addition, the LD50 in data set [2] came out at 40.1 mg/kg. Further, the inhibition in vivo at 3 mg/kg in data set [3] was 93%.

In the case of `COc1ccc([C@@H]2OC(=O)N(CCCN3CCCCC3)[C@@H]2CC(C)C)cc1` (racemic) [Compound 27, (4RS,5SR)-5-(4-methoxyphenyl)-4-(2-methylpropyl)-3-(3-piperidinopropyl)-1,3-oxazolidine-2-one], the LD50 in data set [2] was 39.8 mg/kg. The inhibition in vivo at 3 mg/kg in data set [3] came out at 8.4%.

For `CC(C)C[C@@H]1[C@@H](c2ccccc2)OC(=O)N1CCCN1CCCC1` (racemic) [Compound 14, (4RS,5RS)-4-(2-methylpropyl)-5-phenyl-3-(3-pyrrolidinopropyl)-1,3-oxazolidine-2-one], the LD50 in data set [2] was 53.2 mg/kg. Also, the inhibition in vivo at 3 mg/kg in data set [3] was determined as 10.2%.

Turning to `N[C@H](C(=O)O)c1cc(=O)[nH]o1` [ibotenic acid], the “agonist for glutamic acid” value in data set [4] is recorded as “extremely strong agonist”. Moreover, the “effects induced from administration” value in data set [5] was “dystropy, rigidity, tremor, convulsion and the like are induced”.

Regarding `CC(C)CC[C@@H]1[C@H](c2ccccc2)OC(=O)N1CCCN1CCCCC1` (racemic) [Compound 40, (4RS,5SR)-4-(3-methylbutyl)-5-phenyl-3-(3-piperidinopropyl)-1,3-oxazolidine-2-one], in data set [1] (setting [9]), the “Blocking rate against glutamic acid” value worked out at 61%. Also, in data set [2], the LD50 amounted to 53.6 mg/kg.

Turning to `CCCC[C@@H]1[C@H](c2ccccc2)OC(=O)N1CCCN1CCCCC1` (racemic) [Compound 36, (4RS,5SR)-4-butyl-5-phenyl-3-(3-piperidinopropyl)-1,3-oxazolidine-2-one], the “Blocking rate against glutamic acid” value in data set [1] (setting [9]) was 53%.

Consider `CC(C)C[C@@H]1[C@@H](c2ccccc2)OC(=O)N1CCCN1CCCCC1` (racemic) [Compound 4, (4RS,5RS)-4-(2-methylpropyl)-5-phenyl-3-(3-piperidinopropyl)-1,3-oxazolidine-2-one], for which the “Blocking rate against glutamic acid” value in data set [1] (setting [8]) was found to be 88%. Moreover, the LD50 in data set [2] was determined as 29.9 mg/kg. The inhibition in vivo at 3 mg/kg in data set [3] was 21.2%.

As to `CCCCC[C@@H]1[C@@H](c2ccccc2)OC(=O)N1CCCN1CCCCC1` (racemic) [Compound 37, (4RS,5RS)-4-pentyl-5-phenyl-3-(3-piperidinopropyl)-1,3-oxazolidine-2-one], the “Blocking rate against glutamic acid” value in data set [1] (setting [9]) stood at 58%.

Consider `CC(C)C[C@@H]1[C@H](c2ccccc2)OC(=O)N1CCCN1CCCCC1` (racemic) [Compound 3, (4RS,5SR)-4-(2-methylpropyl)-5-phenyl-3-(3-piperidinopropyl)-1,3-oxazolidine-2-one], for which, in data set [1] (setting [8]), the “Blocking rate against glutamic acid” value was 89%. This compound displayed an LD50 in data set [2] of 55.5 mg/kg. Moreover, in data set [3], the inhibition in vivo at 3 mg/kg turned out to be 18%.

`Cc1ccc([C@@H]2OC(=O)N(CCCN3CCCCC3)[C@@H]2CC(C)C)cc1` (racemic) [Compound 25, (4RS,5SR)-5-(4-methylphenyl)-4-(2-methylpropyl)-3-(3-piperidinopropyl)-1,3-oxazolidine-2-one] yielded a median lethal dose (LD50) in data set [2] of 34.9 mg/kg. For the same compound, in data set [3], the inhibition in vivo at 3 mg/kg was 10.9%.

As to `C[C@@H]1[C@@H](c2ccccc2)OC(=O)N1CCN1CCCC1` (racemic) [Comparative compound 5, (4RS,5RS)-4-methyl-5-phenyl-3-(2-pyrrolidinoethyl)-1,3-oxazolidine-2-one hydrochloride, reference compound], the inhibition in vivo at 3 mg/kg in data set [3] is 3%.
